Experimental data reported in paper PMC8904554, “Discovery of antimicrobials by massively parallelized growth assays (Me^x)” (Scientific Reports, 2022).
Like-named read-outs stand apart in the source and are kept apart here. Ends that are not written are not given here.

What was measured:
[1] = Precipitation observed in the membrane damage assay; assay type: physicochemical; settings: 100% MHB, printed as higher than 4xMIC (16 µM)
Procedure: The bacterial strain suspension was furthermore supplemented with a final concentration of 1 µg ml^−1 propidium iodide just before pipetting the assay. […] The fractions of PI-positive and GFP-positive were determined with the same gate for all populations using the FlowJo V10 software (BD Biosciences). The extracellular membrane integrity assay was performed in biological duplicates analyzing at least 10,000 cells in each experiment.

human erythrocytes = assay: Hemolysis assay using chemically synthesized peptides; assay type: cell-based; settings: for Hemolysis at 16MIC: peptide at 16 × MIC; for Hemolysis at 16MIC / Hemolysis at MIC: human erythrocytes 1:50 in DPBS, 1 h, 37 °C, absorbance 540 nm, relative to full lysis with […] Triton-X100, n = 4; for Hemolysis at MIC: peptide at MIC; for hemolytic activity, in words: MIC/16 to 16 × MIC; for Hemolysis at 16MIC: relative to full lysis with 2.5% Triton-X100
Procedure: Two samples of human blood were obtained from a blood bank (Blutspendezentrum SRK at the University Hospital Basel). The samples were pooled and erythrocytes were isolated by repeated centrifugation at 500×g for 10 min, removal of the blood plasma and resuspending the remaining cells in an equal volume of DPBS. Following last resuspension, erythrocytes were diluted 1:50 in DPBS. […] To each well of the dilution plate, 100 μl of the red blood cells suspension was added. The plate was incubated for 1 h at 37 °C. […] The absorbance was measured at 540 nm using an Infinite M1000 PRO plate reader (Tecan) and corrected by the measurements from the untreated wells. The lysis of each peptide concentration was expressed relative to the lysis control (set as 100% lysis). […]

E. coli TOP10 = assay: microbe, parasite or virus in culture; assay type: cell-based, Escherichia coli; settings: for MIC [µM] 25%MHB: 25% (diluted) Mueller-Hinton Broth; for MIC [µM] 25%MHB / MIC [µM] 100%MHB: 5 × 10^5 cells ml^−1, twofold dilutions, 18 h, 37 °C, no shaking, OD read-out, MIC = < 5% of OD of growth control, mean, n = 3; for MIC [µM] 100%MHB: 100% Mueller-Hinton Broth; for MIC: Escherichia coli, TOP10, read-out: MIC of ampicillin (control) against E. coli TOP10, control
Procedure: On the same day at which MIC assays were executed, purified peptides were thawed and the concentration was determined by HPLC as described before. […] The cultures were then supplemented with 20% glycerol, aliquoted, and frozen at − 80 °C. […] Then the peptides were added by the liquid handling system in twofold dilutions using minimum of 100 µg ml^−1 as the highest concentration. MICs were determined as broth microdilution assay in 384-well flat bottom polypropylene plates (Falcon 96-Well Flat-Bottom Microplate) adapted from the protocol of Wiegand et al.[43]. The plates were sealed airtight and incubated for 18 h without shaking at 37 °C before reading the OD using a Tecan Infinite 200 PRO plate reader. […] MIC experiments were performed at least in triplicate.

[2] = tested on: Klebsiella pneumonia ATCC 13883; assay type: cell-based; settings: chemically synthesized peptide, mean, n = 3
Procedure: (§1) On the same day at which MIC assays were executed, purified peptides were thawed and the concentration was determined by HPLC as described before. E. coli TOP10 cells were grown in Mueller Hinton Broth (MHB) or diluted MHB (25% of the original strength) overnight to stationary phase. Diluted MHB has been frequently used to assay antimicrobial peptides. The cultures were then supplemented with 20% glycerol, aliquoted, and frozen at − 80 °C. […] Then the peptides were added by the liquid handling system in twofold dilutions using minimum of 100 µg ml^−1 as the highest concentration. MICs were determined as broth microdilution assay in 384-well flat bottom polypropylene plates (Falcon 96-Well Flat-Bottom Microplate) adapted from the protocol of Wiegand et al.[43]. The plates were sealed airtight and incubated for 18 h without shaking at 37 °C before reading the OD using a Tecan Infinite 200 PRO plate reader. […] MIC experiments were performed at least in triplicate.

[3] = tested on: Staphylococcus aureus ATCC 29213; assay type: cell-based; settings: chemically synthesized peptide, mean, n = 3
Procedure: as §1

[4] = tested on: Enterococcus faecalis ATCC 29212; assay type: cell-based; settings: chemically synthesized peptide, mean, n = 3
Procedure: as §1

[5] = tested on: Pseudomonas aeruginosa ATCC 47085; assay type: cell-based; settings: chemically synthesized peptide, mean, n = 3
Procedure: as §1

E. coli ATCC 25922 = assay type: cell-based; settings: chemically synthesized peptide, mean, n = 3
Procedure: as §1

E.coli = tested on: E.coli; design: method as in earlier work; settings: ref supplement references 1-15 (Table S1); cited from earlier work
bacteria = tested on: bacteria; design: method as in earlier work; settings: ref supplement references 1-15 (Table S1); cited from earlier work

Row | Compound | MIC [µM] 25%MHB (E. coli TOP10) [µM] | MIC [µM] 100%MHB (E. coli TOP10) [µM] | Hemolysis at 16MIC (human erythrocytes) [%] | Hemolysis at MIC (human erythrocytes) [%] | further results
1 | Melittin: highly membrane damaging peptide used as a control [reference compound] | – | – | – | – | concentration above which the peptide started to precipitate [1]: > 16 µM; hemolysis at the MIC compared to the Triton-X100 control (toxicity towards human erythrocytes) (human erythrocytes): > 5%
2 | CC[C@H](C)[C@H](NC(=O)[C@H](Cc1c[nH]c2ccccc12)NC(=O)[C@H](CCCCN)NC(=O)[C@@H](NC(=O)[C@H](CC(C)C)NC(=O)[C@H](CC(=O)O)NC(=O)CNC(=O)[C@@H](NC(=O)[C@@H](NC(=O)[C@H](CO)NC(=O)[C@@H](NC(=O)[C@@H](NC(=O)[C@H](CC(=O)O)NC(=O)[C@H](C)NC(=O)[C@H](C)NC(=O)[C@@H](N)CCSC)[C@@H](C)CC)[C@@H](C)CC)[C@@H](C)O)[C@@H](C)CC)C(C)C)C(=O)N[C@H](C(=O)N[C@@H](CC(=O)O)C(=O)N[C@H](C(=O)N[C@H](C(=O)N[C@@H](CC(N)=O)C(=O)N[C@@H](CCCCN)C(=O)N[C@@H](Cc1ccccc1)C(=O)N[C@@H](CCCCN)C(=O)O)C(C)C)[C@@H](C)O)[C@@H](C)CC [Delta lysin I 3458 NCBI] | > 60 | > 60 | – | – | –
3 | VSKIKKYLKYKDRI [P-10 8942 APD] | 13 | > 60 | 2.2 | 0.5 | –
4 | GKFSGFAKILKSIAKFFKGVGKVRKGFKEASDLDKNQ [Oxyopinin 2b 9690 APD] | 0.5 | 0.5 | 63.4 | 0.7 | hemolytic activity, in words (human erythrocytes): displayed hemolytic activity at higher concentrations
5 | KRFKKFFKKLKKSVKKRAKKFFKKPRVIGVSIPF [BF-CATH 9639 APD] | 1 | 1 | 4.8 | 2.1 | –
6 | LKDKVKSMGEKLKQYIQTWKAKF [Latarcin 4a 5147 APD] | 5 | 8 | 2.8 | 0.2 | –
7 | GWFKKAWRKVKHAGRRVLDTAKGVGRHYLNNWLNRYR [HFIAP-1 4545 NCBI] | 0.5 | 0.5 | 18.9 | 4.1 | hemolytic activity, in words (human erythrocytes): displayed hemolytic activity at higher concentrations; MIC [µm] in MHB [2]: 0.4 µM; MIC [µm] in MHB [3]: 1.4 µM; MIC [µm] in MHB [4]: 5.6 µM; MIC [µm] in MHB [5]: 0.7 µM; MIC [µm] in MHB (E. coli ATCC 25922): 0.7 µM
8 | TALKGAAKELASTYQH [Maximin 3 5468 NCBI] | > 60 | > 60 | – | – | –
9 | VKLIQIRIWIQYVTVLQMFSMKTKQ [Meucin-25 11598 APD] | > 60 | > 60 | – | – | –
10 | GFKDWIKGAAKKLIKTVASSIANE [Ascaphin-6 9286 APD] | 1 | 0.8 | 1.4 | 0 | –
11 | CC1(C)S[C@@H]2[C@H](NC(=O)[C@H](N)c3ccccc3)C(=O)N2[C@H]1C(=O)O [ampicillin, reference compound] | – | – | – | – | MIC (E. coli TOP10; 25% MHB): 17 µM; MIC (E. coli TOP10; 100% MHB): 34 µM
12 | VDKGGYLPRPTPPRPVYR [Pyrrhocoricin 7122 NCBI] | 8 | 20 | 2.3 | 1.1 | –
13 | Pyrrhocoricin PARENT: PARENT peptide on the APD, a ribosomal inhibitor | – | – | – | – | Previously reported activity against E.coli of parent (E.coli): active; Reported antibacterial mechanism of action of parent (bacteria): Translation inhibition
14 | AIAKLVAKFGWPIVKKYYKQIMQFIGEGWAINKIIEWIKK [Enterocin RJ-11 3780 NCBI] | 1 | 0.5 | 103.3 | 22.7 | hemolysis at the MIC compared to the Triton-X100 control (toxicity towards human erythrocytes) (human erythrocytes): > 5%
